Assay results from the NIST ThermoML archive (doi:10.1021/je100042c).

Conditions: 101.33 kPa, Liquid; for viscosity: Concentric cylinders viscometry; for mass density: Vibrating tube method

CCCCC/C=C\C/C=C\CCCCCCCC(=O)OC [methyl (Z,Z)-9,12-octadecadienate]
Conditions	mass density [kg/m3]	viscosity [mPa·s]
278.15 K	897.2	7.466
283.15 K	893.5	6.466
288.15 K	889.9	5.655
293.15 K	886.2	4.982
298.15 K	882.5	4.428
303.15 K	878.8	3.961
308.15 K	875.2	3.567
313.15 K	871.5	3.227
318.15 K	867.9	2.936
323.15 K	864.3	2.682
328.15 K	860.7	2.461
333.15 K	857	2.266
338.15 K	853.4	2.093
343.15 K	849.8	1.94
348.15 K	846.1	1.804
353.15 K	842.5	1.682
358.15 K	838.7	–
363.15 K	835.1	–

CCCCCCCCCCCCCCCCCC(=O)OCC [ethyl octadecanoate]
Conditions	mass density [kg/m3]	viscosity [mPa·s]
313.15 K	844.8	5.082
318.15 K	841.1	4.529
323.15 K	837.5	4.057
328.15 K	833.9	3.654
333.15 K	830.3	3.307
338.15 K	826.7	3.007
343.15 K	823.1	2.744
348.15 K	819.5	2.515
353.15 K	815.9	2.313
358.15 K	812.3	2.135
363.15 K	808.7	1.978

CCCCCCCCCC(=O)OCC [ethyl decanoate]
Conditions	mass density [kg/m3]	viscosity [mPa·s]
283.15 K	872.5	2.896
288.15 K	868.4	2.588
293.15 K	864.3	2.326
298.15 K	860.2	2.103
303.15 K	856.2	1.911
308.15 K	852.1	1.745
313.15 K	848	1.6
318.15 K	843.9	1.473
323.15 K	839.8	1.36
328.15 K	835.7	1.259
333.15 K	831.6	1.169
338.15 K	827.5	1.089
343.15 K	823.4	1.017
348.15 K	819.2	0.9516
353.15 K	815.1	0.8929

CCCCCCCCCCCCCC(=O)OC [methyl tetradecanoate]
Conditions	mass density [kg/m3]	viscosity [mPa·s]
298.15 K	863.7	3.982
303.15 K	859.9	3.543
308.15 K	856	3.165
313.15 K	852.2	2.845
318.15 K	848.4	2.571
323.15 K	844.6	2.334
328.15 K	840.8	2.129
333.15 K	837	1.95
338.15 K	833.1	1.793
343.15 K	829.3	1.655
348.15 K	825.5	1.532
353.15 K	821.8	1.423

CCCCCCCCCC(=O)OC [methyl decanoate]
Conditions	mass density [kg/m3]	viscosity [mPa·s]
278.15 K	884.7	2.989
283.15 K	880.6	2.654
288.15 K	876.4	2.373
293.15 K	872.3	2.136
298.15 K	868.2	1.933
303.15 K	864.1	1.76
308.15 K	860	1.609
313.15 K	856	1.477
318.15 K	851.9	1.361
323.15 K	847.8	1.259
328.15 K	843.6	1.167
333.15 K	839.5	1.086
338.15 K	835.3	1.013
343.15 K	831.2	0.9477
348.15 K	827	0.8886
353.15 K	822.9	0.8342
358.15 K	818.7	0.786
363.15 K	814.5	0.7421

CCCCCCCCCCCC(=O)OCC [ethyl dodecanoate]
Conditions	mass density [kg/m3]	viscosity [mPa·s]
283.15 K	870.3	4.335
288.15 K	866.4	3.813
293.15 K	862.4	3.38
298.15 K	858.5	3.015
303.15 K	854.6	2.707
308.15 K	850.7	2.446
313.15 K	846.8	2.22
318.15 K	842.9	2.024
323.15 K	839	1.853
328.15 K	835.1	1.704
333.15 K	831.1	1.57
338.15 K	827.2	1.453
343.15 K	823.3	1.349
348.15 K	819.4	1.254
353.15 K	815.4	1.171

CCCCCCCC/C=C\CCCCCCCC(=O)OC [methyl cis-9-octadecenoate]
Conditions	mass density [kg/m3]	viscosity [mPa·s]
283.15 K	881.4	8.699
288.15 K	877.7	7.452
293.15 K	874.1	6.45
298.15 K	870.4	5.634
303.15 K	866.8	4.961
308.15 K	863.1	4.401
313.15 K	859.5	3.93
318.15 K	855.9	3.531
323.15 K	852.3	3.189
328.15 K	848.7	2.894
333.15 K	845.1	2.638
338.15 K	841.5	2.416
343.15 K	837.9	2.222
348.15 K	834.3	2.05
353.15 K	830.7	1.897
